One assay deals with PDE4. Nature of the assay: In-vitro assay measuring PDE4 inhibition (PDE4 from U937 human monocytic cells, [3H]-cAMP SPA). The class given is biochemical. To be noted: 23 nM [3H]-cAMP, 37° C., 30 min. As to the method: PDE4 was prepared from U937 human monocytic cells according to the method of Tenor et al. (Clin Exp Allegy (1995) 25:625-633). Briefly, U937 cells were homogenized in a mixture of pH 7.4 containing 10 mM Hepes, 1 mM b-mercaptoethanol, 1 mM MgCl2, 1 mM EGTA, 137 mM NaCl, 2.7 mM KCl, 1.5 mM KH2PO4, 8.1 mM Na2HPO4, 5 μM pepstain A, 10 μM leupeptin, 50 μM PMSF, 10 μM soybean trypsin inhibitor, and 2 mM benzamindine. The homogenate was centrifuged at 200,000×g for 30 min. PDE4 activity in the supernatant was assayed in a 200 μl reaction containing 40 mM Tris-HCl, pH 7.5, 23 nM [^3H]-adenosine 3′,5′ cyclic monophosphate (cAMP), 8.3 mM MgCl2, 1.7 mM EGTA, 0.25% DMSO, and a testing compound. The assay mixture was incubated at 37° C. for 30 min and the reaction was terminated by the addition of 100 μl of yttrium silicate SPA beads (Amersham Pharmacia Biotech, Piscataway, N.J.) suspended in 18 mM ZnSO4. The assay mixture was rotated for 3 min to ensure the binding of [^3H]-5′adenosine monophosphate to the beads. Finally, the beads was spun down, washed twice with 6 mM ZnSO4, resuspended in 100 μl of 0.1 N NaOH, and then counted for radioactivity in a liquid scintillation counter.

The test system of assay [1] is MDA435 (human breast cancer). Nature of the assay: In-vitro assay measuring anti-cancer activity (MTS assay). The class given is cell-based. The settings on record: MDA435 cells, 72 hours incubation, read-out: IC50, concentration required to inhibit 50% tumor cell growth. The protocol:
In vitro anti-cancer activity was determined in human cancer cell line MDA435 (human breast cancer), obtained from ATCC (American Type of Culture Collection).
The cell line was maintained in RPMI1640(GIBCO) supplemented with 10% FCS, 100 units/ml penicillin, 100 ug/ml streptomycin, and 2 mM L-glutamine. The cells were split every third day and diluted to a concentration of 2×10^5 cells/ml one day before experiment. The experiment was performed on exponentially growing cell culture. Cell densities were 2.5×10^4 cells/ml in this experiment.
A stock solution of Compound (I-4) was prepared by dissolving the compound at a concentration of 1 mM in 100% DMSO. Final concentrations were obtained by diluting the stock solution directly into the tissue culture medium. Cells were incubated with varying concentrations of the compound for 72 hours and the IC50 was determined by MTS (i.e. 3-(4.5.-dimethylthiazol-2-yl)-2.5-diphenyl tetrazolium bromide) assay. In this experiment, IC50 stands for the concentration of compound required to inhibit 50% tumor cell growth. Compound (I-4) provided an IC50 value of about 1 μM.
A general note: Tetrazolium dyes change colour on reduction, which living cells bring about.

A further assay relates to TNFα. Nature of the assay: In-vitro assay measuring TNFα inhibition (LPS-stimulated human PBMC, ELISA). The assay is classed as cell-based. To be noted: human PBMC stimulated with LPS 1 μg/mL, supernatant after 18 h, read-out: IC50, inhibition of TNFα production. The protocol:
Reagents. Lipopolysaccharide (LPS, Serratia marscencens) was obtained from Sigma (St. Louis, Mo.). RPMI-1640 medium and fetal calf serum (FCS) were purchased from the ATCC (Manassas, Va.).
Assay. Human peripheral blood cells (PBMC) were isolated by centrifugation using Ficoll-Paque (Pharmacia Biotech, Uppsala, Sweden) and suspended in RPMI-1640 medium supplemented with 10% FCS, 100 U/mL penicillin, and 100 μg/mL streptomycin. The cells were then plated in the wells of a 96-well plate at a concentration of 5×10^5 cells/well, and stimulated by adding LPS (1 μg/mL). Each test compound was dissolved in DMSO and added to the wells. The final DMSO concentration was adjusted to 0.25% in all cultures, including the compound-free control, and the concentrations of each test compound ranged from 0 to 10 μM. Cell-free supernatants were taken 18 h later for measurement of cytokines. Cell viability was assessed using the bioreduction of MTS [3-(4,5-dimethylthiazol-2-yl)-5-(3-carboxymethoxyphenyl)-2-(4-sulophenyl)-2H-tetrazolium] after 18 h and 48 h. Cell survival was estimated by determining the ratio of the absorbance in each of the compound-treated cultures to that in the compound-free control.
The supernatant was assayed for the amount of TNFα by using an ELISA assay with anti-human TNFa antibodies (Cell Sciences, Norwood, Mass.). The assay was carried out following the manufacturer's instructions.

In the case of `O=C(Nc1c(Cl)c[n+]([O-])cc1Cl)C(=O)c1cc(Cc2ccc(F)cc2)n2ncccc12` [Compound I-4, N-(3,5-Dichloro-1-oxy-pyridin-4-yl)-2-[7-(4-fluoro-benzyl)-pyrrolo[1,2-b]pyridazin-5-yl]-2-oxo-acetamide], the IC50 is approximately 5 nM in the assay on PDE4, approximately 1000 nM in assay [1] and approximately 50 nM in the assay with TNFα.

On to `Cc1cc(NC(=O)C(=O)c2cc(Cc3ccc(C#N)cc3)n3ccsc23)sn1` [Compound I-10, 2-[5-(4-Cyano-benzyl)-pyrrolo[2,1-b]thiazol-7-yl]-N-(3-methyl-isothiazol-5-yl)-2-oxo-acetamide], for which the IC50 with TNFα was approximately 1000 nM.
